{
  "source": "patent US20250041311A1",
  "about": "“Compound For Treating or Preventing Vimentin-Mediated Diseases” (Aluda Pharmaceuticals, Inc., priority 2021, published 2025)",
  "key": {"Huh7-NC12 cells [1]": {"tested_on": "Huh7-NC12 cells", "assay": "Exosome release from liver cancer cells (luciferase exosome reporter, ExoHTP platform)", "type": "cell-based", "settings": "48 h, luciferase activity of exosomes purified from supernatant"}, "A549 cells": {"tested_on": "A549 cells", "assay": "Wound healing assay", "type": "cell-based, human", "settings": "different concentrations of C52, 48 h, dose-dependent", "protocol": "Wound healing assay: Cells were seeded in 6-well plates containing complete medium and cultured at 37° C. in a humidified air environment containing 5% CO2. […] […] The wound area and migrated cells within the wound area were photographed using a phase-contrast microscope. The wound area was measured using Image J software."}, "EAE mice": {"tested_on": "EAE mice", "assay": "MOG-induced experimental autoimmune encephalomyelitis (EAE) mouse model", "type": "in vivo"}, "BALB/c mice": {"tested_on": "BALB/c mice", "assay": "Circulating plasma exosomes in mice after oral dosing", "type": "in vivo, mouse", "settings": "100 mg/kg once a day for 14 days by gavage, vs vehicle", "protocol": "In vivo experiments: 6- to 8-week-old BALB/c mice (18 to 20 g) were purchased from Beijing Life River Experimental Animal Technology Co., Ltd. (Beijing, China) and housed at the Experimental Animal Center of Nanjing University of Traditional Chinese Medicine. Animals were maintained at 22±2° C. on a regular 12h/12h light-dark cycle with free access to food and water. All animal experiments were approved by the Ethics Committee of Nanjing University of Traditional Chinese Medicine. Animal care was provided according to IACUC-approved guidelines.\nTwenty-four hours after the last administration, the mice were anesthetized with pentobarbital sodium, from which blood samples were collected, and then the mice were euthanized. […].\nIsolation of exosomes from mouse plasma: To obtain plasma for exosome isolation, blood was centrifuged at 500 g for 5 min at 4° C.; 2000 g for 15 min; and treated with a solution of 10000 g for 20 min to remove cells, debris and large vesicles. The crude exosome pellet was resuspended in 60 ml of cold PBS (Invitrogen), and then the exosome suspension was centrifuged at 100,000 g for 70 min at 4° C. For sucrose density gradient centrifugation, mix the washed exosome pellet with 2 mL of […] sucrose solution and add to a sucrose step gradient column (10 2 ml sucrose gradients from […] using 20 mM HEPES as diluent). […]"}, "Huh7-NC12 cells [2]": {"tested_on": "Huh7-NC12 cells", "assay": "PrestoBlue cell viability of liver cancer cells"}, "[3]": {"settings": "C52 low and medium doses (10 or 30 mg/kg), oral once a day, vs vehicle"}},
  "note": "Entries after “also recorded” stand apart in the source; their conditions may differ.",
  "data": [
    {"compound": "O=C(Nc1ccc(F)cc1)Nc1ccc(Nc2nc(/C=C/c3ccccc3)nc(N3CCOCC3)n2)cc1", "note": "[Compound C52]", "values": [
      {"measurement": "inhibition of exosome release", "setting": "Huh7-NC12 cells [1]", "result": "comparable to that of the known exosome inhibitor GW4869; also recorded: effectively inhibit the release of exosomes"},
      {"measurement": "closure rate of the gap size", "setting": "A549 cells", "result": "significantly decreased"},
      {"measurement": "animal weight loss", "setting": "EAE mice; [3]", "result": "less weight loss; also recorded: reduced"},
      {"measurement": "clinical disease scores", "setting": "EAE mice; [3]", "result": "lower; also recorded: improved"},
      {"measurement": "disease onset", "setting": "EAE mice; [3]", "result": "relatively delayed"},
      {"measurement": "therapeutic effect in EAE", "setting": "EAE mice; mouse, in vivo, po, 100 mg/kg", "result": "no therapeutic effect"},
      {"measurement": "amount of exosomal markers CD9 and CD63 inside the cells", "setting": "U87 cells", "result": "did not reduce"},
      {"measurement": "extracellular levels of exosomal markers CD9 and CD63", "setting": "U87 cells", "result": "reduced"},
      {"measurement": "CD9 in the cell culture medium", "setting": "U87 cells; vimentin-knockdown U87 Vim+/- cells, 2 μM C52, 72 h", "result": "further reduction"},
      {"measurement": "exosomal markers CD63 and TSG101 in plasma exosomes", "setting": "BALB/c mice", "result": "significantly decreased"},
      {"measurement": "cytotoxicity", "setting": "Huh7-NC12 cells [2]; 48 h, highest concentration 10,000 nM, high concentrations 3,160 and 10,000 nM", "result": "not cytotoxic"},
      {"measurement": "survival rate", "setting": "Huh7-NC12 cells [2]; after two days of treatment", "result": "about 90%"},
      {"measurement": "toxicity to Huh7-NC12 cells", "setting": "Huh7-NC12 cells [2]; high concentrations (>3160 nM)", "result": "not toxic"}
    ]}
  ]
}
